Entries after “also recorded” stand apart in the source; their conditions may differ. Read-outs that look alike come from different tables or passages of the source.
Assays:
dCK-C3S-S74E = assay: Enzymatic assay (PK/LDH coupled), dC phosphorylation by dCK in the presence of UTP; assay type: biochemical, human; conditions: for ENZYMATIC ASSAY (Activation/Inhibition): presence of UTP; for effect on dCK enzymatic activity, activation versus inhibition: UTP 1 mM, dC 200 µM
Method in brief: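 Activation versus inhibition was judged with 1 mM UTP, 200 µM dC and 2 μM dCK-C3S-S74E, using pyruvate kinase/lactate dehydrogenase coupling that tracks NADH fluorescence decrease at 460 nm. Buffer was HEPES pH 7.5 with MgCl2, KCl and DTT. Rates came from linear slopes, expressed relative to compound-free control.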

[1] = Plasma pharmacokinetics after IP administration; assay type: in vivo; conditions: male, Swiss, mouse, mice
Description: (§1) To evaluate the in vivo toxicity selected compounds were injected by intraperitoneal (IP) route to 7 weeks-old male Swiss mice (n = 2) at 10, 20, 40, 50, or 80 mg/kg by unique injection. […] Compounds were administered in their hydrochloride salt forms. Mice were then observed closely for the next one hour, then every hour for 8 h. Observations were continued for 72 h for signs of pain or toxicity such as change in the behavior and in the activity in the cage (decreased locomotion) or change in the appearance (curved back, eyes half-closed, bristle hair, hips hollowed out). In vivo toxicity of compound OR0642 at 40 and 80 mg/kg was also assessed in the NOD-SCID-IL2Rγc null (NSG) mice model for 2 weeks in the presence and absence of dT to confirm the safety of the compound. […]. Blood samples were collected and spun at 10,000 × g prior to collecting the plasma supernatants. All plasma samples were frozen at −80 °C before sample processing. 13 μl of each plasma sample was mixed with 33 μl of acetonitrile to precipitate proteins and extract the compound. Samples were vortexed for 5 min and then placed in an ultrasonic bath for 1 min. The precipitated proteins were sedimented by centrifugation (15,000 × g, 5 min, 16 °C). Supernatants were transferred to a microplate to be analyzed by LC–MS/MS. All samples were analyzed with a UHPLC coupled to a Shimadzu LC-MS 8030 triple quadrupole. The solutions of a standard range, prepared with plasma from untreated mice, were analyzed in the same series of injections.

CCRF-CEM cell line = assay: CCRF-CEM proliferation, compound alone (nonspecific toxicity); assay type: cell-based, human; conditions: for nonspecific cellular toxicity: CCRF-CEM, absence of dT + dC; for Cell proliferation of the CCRF-CEM cell line Mean (% prolif): 72 h
Description: The dCK cellular assay was set up to assess the ability to inhibit dCK activity in a cellular model. The model was developed with a T-cell acute lymphoblastic leukemia cell line (CCRF-CEM), because of its high dependence on the SP, thus on dCK activity. Cellular assays were performed to assess the inhibition of cell proliferation under two conditions: (i) in the presence of the compound alone to determine the nonspecific effect on cells, independent of dCK (nonspecific toxicity) and (ii) in the presence of an inhibitor of the DNP to determine the ability of compounds to inhibit dCK and decrease tumor proliferation (activity on dCK). The inhibitor of the DNP chosen for the experiments was thymidine (dT), a physiological inhibitor of ribonucleotide reductase which arrests cell proliferation in phase S. The dTTP produced via thymidine kinase from dT acts as a RNR inhibitor by an allosteric regulation of the R1 subunit. The addition of the nucleoside deoxycytidine (dC) in the medium allows the rescue of cell proliferation by passing only through the salvage pathway, mediated by dCK. dC needs to be added exogenously to mimic physiological concentrations because it is not present in the cell culture medium, on the contrary to mouse model, in which it is naturally present in the serum. Therefore, cell proliferation under these conditions (+dT +dC) is dCK dependent and it is possible to determine the IC50 of dCK inhibitors on the inhibition of cell proliferation. Results are expressed as % cell proliferation relative to the control with DMSO.
The amount of reduced dye formed by metabolically active cells was quantified by its fluorescence measured at 560 nm (excitation) and 590 nm (emission) in a microplate reader (CLARIOstar, BMG Labtech). A blank well without cells was used as a background control. Each experiment was performed at least three times (with technical triplicates) and data are presented as the mean ± SD.

[2] = Acute in vivo toxicity, unique IP injection; conditions: male, mouse, in vivo; Swiss mice, IP, unique injection; read-out: Maximum tolerated dose
Description: as §1

[3] = dose 40 mg/Kg, read-out: T ½ (converted)

dCK-C3S-S74E, sequence (P27707 whole entry S74E, form open): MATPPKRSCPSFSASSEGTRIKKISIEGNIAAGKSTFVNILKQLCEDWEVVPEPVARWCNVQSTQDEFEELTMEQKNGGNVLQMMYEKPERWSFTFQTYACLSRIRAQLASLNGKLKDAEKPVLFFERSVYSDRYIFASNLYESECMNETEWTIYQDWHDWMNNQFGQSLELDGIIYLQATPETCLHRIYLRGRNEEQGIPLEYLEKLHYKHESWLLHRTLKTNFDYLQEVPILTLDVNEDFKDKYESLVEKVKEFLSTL

## Cc1ccc(-c2ccc(CN3CCN(C)CC3)cc2)cc1Nc1nc(-c2nccc(N)n2)cs1 [OR0274]
dCK-C3S-S74E
  ENZYMATIC ASSAY (Activation/Inhibition): A/I

## Cc1ccc(-c2ccc(CCN3CCN(C)CC3)cc2)cc1Nc1nc(-c2nccc(N)n2)cs1 [OR0325]
dCK-C3S-S74E
  ENZYMATIC ASSAY (Activation/Inhibition): A/I

## CCCN(c1nc(-c2nccc(N)n2)cs1)c1cc(-c2ccc(CCN3CCN(C)CC3)cc2)ccc1C [OR0345]
dCK-C3S-S74E
  effect on dCK enzymatic activity, activation versus inhibition: total loss of dCK enzymatic activation
  ENZYMATIC ASSAY (Activation/Inhibition): I

## CCCN(c1nc(-c2nc(N)cc(N)n2)cs1)c1cc(-c2ccc(CCN3CCN(C)CC3)cc2)ccc1C [OR0600]
dCK-C3S-S74E
  effect on dCK enzymatic activity, activation versus inhibition: only exhibited enzymatic inhibition
  ENZYMATIC ASSAY (Activation/Inhibition): I

## CCCN(c1nc(-c2nc(N)cc(N)n2)cs1)c1cc(-c2ccc(CCN3CCN(C)CC3)nc2)ccc1C [OR0602]
dCK-C3S-S74E
  ENZYMATIC ASSAY (Activation/Inhibition): I
[1]; dose 10 mg/Kg
  Cmax: 960 ± 40 nM
  Tmax: 1 h
[1]; dose 10 mg/Kg, read-out: T ½ (converted)
  half-life: 2 ± 0.233 h
CCRF-CEM cell line
  nonspecific cellular toxicity: without an increase in nonspecific cellular toxicity
[2]
  MTD at 72 h: 10 mg/kg

## CCCN(c1nc(-c2nc(N)cc(N)n2)cs1)c1cc(-c2ccc(S(=O)(=O)N3CCN(C)CC3)c(OC)c2)ccc1C [OR0635]
dCK-C3S-S74E
  ENZYMATIC ASSAY (Activation/Inhibition): I
[1]; dose 40 mg/Kg
  Cmax: 2000 ± 200 nM
  Tmax: 1.5 h
[1]; [3]
  half-life: 6.22 ± 3.38 h
[1]; read-out: half-life
  half-life: > 5 h
[2]
  MTD at 72 h: > 40 mg/kg

## CCCN(c1nc(-c2nc(N)cc(N)n2)cs1)c1cc(-c2ccc(S(=O)(=O)N3CCN(C)CC3)cc2C(F)(F)F)ccc1C [OR0642]
dCK-C3S-S74E
  effect on dCK enzymatic activity, activation versus inhibition: inhibitor even at concentrations in the nanomolar range
  ENZYMATIC ASSAY (Activation/Inhibition): I
[1]; dose 20 mg/Kg
  Cmax: 800 ± 200 nM
  Tmax: 2 h
[1]; dose 20 mg/Kg, read-out: T ½ (converted)
  half-life: 7 ± 3 h
[1]; dose 40 mg/Kg
  Cmax: 4100 ± 1500 nM
  Tmax: 5 h
[1]; [3]
  half-life: > 8 h
[1]; read-out: half-life
  half-life: > 7 h
CCRF-CEM cell line
  nonspecific cellular toxicity: lack of non-specific toxicity; also recorded: absence of nonspecific toxicity
[2]
  MTD at 72 h: > 80 mg/kg

## Cc1ccc(NC(=O)c2ccc(CN3CCN(C)CC3)cc2)cc1Nc1nc(-c2nccc(N)n2)cs1 [dCKi1]
dCK-C3S-S74E; 0.078 µM
  Enzymatic activity (UTP) Mean (% activity): 104.73%
dCK-C3S-S74E; 0.156 µM
  Enzymatic activity (UTP) Mean (% activity): 119.43%
dCK-C3S-S74E; 0.31 µM
  Enzymatic activity (UTP) Mean (% activity): 140.85%
dCK-C3S-S74E; 0.625 µM
  Enzymatic activity (UTP) Mean (% activity): 200.29%
dCK-C3S-S74E; 1.25 µM
  Enzymatic activity (UTP) Mean (% activity): 208.47%
dCK-C3S-S74E; 2.5 µM
  Enzymatic activity (UTP) Mean (% activity): 211.72%
dCK-C3S-S74E; 5 µM
  Enzymatic activity (UTP) Mean (% activity): 205.54%
dCK-C3S-S74E; 10 µM
  Enzymatic activity (UTP) Mean (% activity): 84.19%
dCK-C3S-S74E; 20 µM
  Enzymatic activity (UTP) Mean (% activity): 45.49%
dCK-C3S-S74E; 40 µM
  Enzymatic activity (UTP) Mean (% activity): 12.08%
dCK-C3S-S74E; 80 µM
  Enzymatic activity (UTP) Mean (% activity): 5.40%
dCK-C3S-S74E; 160 µM
  Enzymatic activity (UTP) Mean (% activity): 0.67%
dCK-C3S-S74E
  effect on dCK enzymatic activity, activation versus inhibition: shifted from activators to inhibitors
  ENZYMATIC ASSAY (Activation/Inhibition): A/I
CCRF-CEM cell line; compound 10 µM alone
  Cell proliferation of the CCRF-CEM cell line Mean (% prolif): 76.3%

## Cc1ccc(NC(=O)c2ccc(CN3CCN(C)CC3)cc2)cc1Nc1nc(-c2nc(N)cc(N)n2)cs1 [dCKi2, N-(3-((4-(4,6-diaminopyrimidin-2-yl)thiazol-2-yl)amino)-4-methylphenyl)-4-((4-methylpiperazin-1-yl)methyl)benzamide]
dCK-C3S-S74E; 0.156 µM
  Enzymatic activity (UTP) Mean (% activity): 93.59%
dCK-C3S-S74E; 0.31 µM
  Enzymatic activity (UTP) Mean (% activity): 84.70%
dCK-C3S-S74E; 0.625 µM
  Enzymatic activity (UTP) Mean (% activity): 90.40%
dCK-C3S-S74E; 1.25 µM
  Enzymatic activity (UTP) Mean (% activity): 99.44%
dCK-C3S-S74E; 2.5 µM
  Enzymatic activity (UTP) Mean (% activity): 135.24%
dCK-C3S-S74E; 5 µM
  Enzymatic activity (UTP) Mean (% activity): 164.65%
dCK-C3S-S74E; 10 µM
  Enzymatic activity (UTP) Mean (% activity): 178.80%
dCK-C3S-S74E; 20 µM
  Enzymatic activity (UTP) Mean (% activity): 174.40%
dCK-C3S-S74E; 40 µM
  Enzymatic activity (UTP) Mean (% activity): 165.28%
dCK-C3S-S74E; 80 µM
  Enzymatic activity (UTP) Mean (% activity): 150.42%
dCK-C3S-S74E; 160 µM
  Enzymatic activity (UTP) Mean (% activity): 147.75%
dCK-C3S-S74E
  effect on dCK enzymatic activity, activation versus inhibition: shifted from activators to inhibitors
  ENZYMATIC ASSAY (Activation/Inhibition): A/I
CCRF-CEM cell line; compound 10 µM alone
  Cell proliferation of the CCRF-CEM cell line Mean (% prolif): 78.4%

## Cc1cn([C@H]2C[C@H](O)[C@@H](CO)O2)c(=O)[nH]c1=O [dT, thymidine]
CCRF-CEM cell line; dT 111 µM alone
  Cell proliferation of the CCRF-CEM cell line Mean (% prolif): 33.2%

From publication PMC10227015, “From a drug repositioning to a structure-based drug design approach to tackle acute lymphoblastic leukemia” (Nature Communications, 2023)
